According to PubChem BioAssay (NCI):
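A five-concentration, 48-hour dose response in 96-well plates underlies each endpoint, interpolated linearly between surrounding concentrations. GI50 marks 50% less growth. TGI marks complete inhibition of growth.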

Tests used:
Assay in all cases: DTP human tumour cell line panel, 48 h
NCI-H460 lung = system: NCI-H460 lung
MALME-3M melanoma = system: MALME-3M melanoma
OVCAR-5 ovarian = system: OVCAR-5 ovarian
KM12 colon = system: KM12 colon
SF-539 CNS = system: SF-539 CNS
RXF 393 renal = system: RXF 393 renal
OVCAR-4 ovarian = system: OVCAR-4 ovarian
786-0 renal = system: 786-0 renal
MOLT-4 leukemia = system: MOLT-4 leukemia
NCI-H23 lung = system: NCI-H23 lung

SMILES	GI50 (NCI-H460 lung) [µM]	TGI (NCI-H460 lung) [µM]	GI50 (MALME-3M melanoma) [µM]	TGI (MALME-3M melanoma) [µM]	TGI (OVCAR-5 ovarian) [µM]	GI50 (KM12 colon) [µM]	TGI (KM12 colon) [µM]	GI50 (SF-539 CNS) [µM]	TGI (SF-539 CNS) [µM]	GI50 (RXF 393 renal) [µM]	TGI (RXF 393 renal) [µM]	GI50 (OVCAR-4 ovarian) [µM]	TGI (OVCAR-4 ovarian) [µM]	GI50 (786-0 renal) [µM]	TGI (786-0 renal) [µM]	TGI (MOLT-4 leukemia) [µM]	GI50 (NCI-H23 lung) [µM]	TGI (NCI-H23 lung) [µM]	GI50 (OVCAR-5 ovarian) [µM]	GI50 (MOLT-4 leukemia) [µM]
COC(=O)c1cc2c(c(C(=O)OC)c1O)C(=O)C=CC2=O	> 9.1	> 74.3	> 9.1	> 58.4	> 54.6	> 9.1	> 58.3	> 9.1	> 56.1	> 9.1	> 48.9	> 9.1	> 54	> 9.1	> 56.1	> 21.5	> 9.1	> 31.6		
COc1ccc(-n2cc(-c3cc(OC)c(OC)c(OC)c3)[nH]c2=S)cc1OC	> 100	> 100	> 100	> 100	> 100	> 100	> 100	> 100	> 100	> 100	> 100	> 100	> 100	> 100	> 100	> 100	> 100	> 100	> 100	7.04
COC(=O)C1=C(c2ccc3c(c2)OCO3)O[C@H](c2ccc3c(c2)OCO3)[C@H]1COC(C)=O		> 100		> 100	> 100		> 100		> 100		> 100		> 100		> 100	> 100		> 100		
Cc1ccc(C(=O)/C=C/c2ccccc2O)c(C)c1		> 100		> 100	> 100		> 100		> 100		> 100		> 100		> 100	> 100		> 100		
CNC1C(=O)C(C)C(O)(C(CC(C)C(O)/C=C/C=C/CNC(=O)C(C)(C)C(O)\C(C)=C/C=C\C=C\Cc2cnc(C)o2)OC)C12C(=O)OC2COC (stereo not drawn) (tested in a mixture with another compound)		> 100		> 87.9	> 70.2		26.1		67		92.3		> 100		73.7	35.8		> 60.7		
COc1ccc(C(=O)/C=C/c2cccnc2Nc2cc(OC)c(OC)c(OC)c2)cc1	1.84	8.57	6.32	20.1	10	0.53	2.79	1.81	5.62	1.47	5.36	1.52	10.1	1.22	2.96	7.64	2.24	17.6	3.36	2.26
CC[C@H](C)[C@H](NC(=O)[C@H]1CCCCN1C)C(=O)N(C)[C@H](CCc1nc(C(=O)N[C@@H](Cc2ccccc2)C[C@H](C)C(=O)OC)cs1)C(C)C	0.395	> 10.3	3.71	> 25	> 25	0.261	> 25	0.464	1.53	0.308	> 25	1.36	> 25	0.432	> 11.6	> 25	0.866	> 25	1.12	0.727
COc1ccc(-c2nc(-c3nc4ccc(C)cc4[nH]3)c3ccccn23)cc1	2.28	6.11	2.83	8.62	> 100	2.38	9.07	3.32	> 100	7.73	> 100	3.81	> 100	3.67	> 100	7.99	3.85	> 100	4.69	2.17
CC(=O)c1ccc(NC(=O)/C(Cc2ccccn2)=N/NC(=O)C[N+](C)(C)C)cc1		> 100		> 100	> 100		> 100		> 100		> 100		> 100		> 100	> 100		> 100		
COc1cc(C(=O)O[C@H](C(N)=O)[C@]2(C)CO2)c2ccccc2c1	10.4	57.1	16.2	36.5	33.1	15.6	32.4	2.41	7.55	17.3	47.3	10.1	48.6	5.08	17.3	48.9	7.95	21.8	11.5	17
